Laboratory results from PubChem BioAssay AID330 (DTP/NCI, 2004).
Several values for one entry are separate records, joined by “and”; a condition that tells them apart may be missing. Equal values may be shown once. Toxic doses and inconclusive results are not listed. Rule for the calls: active = survival T/C of 150% or more; inactive = T/C below 125% in these data.

System: P388 leukemia ip, CD2F1 mice, survival T/C
Assay: NCI In Vivo Anticancer Drug Screen. Data for tumor model P388 Leukemia (intraperitoneal) in CD2F1 (CDF1) mice
Conditions: endpoint: median survival time, higher = longer survival
Summary of the method: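 Mice carrying the transplanted tumor received test compound or vehicle. Survival was recorded in each group, and the value is the treated-group measurement divided by that of the vehicle-treated control group.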

[1] = dose: 50.0 mg/kg/injection, schedule: Q01DX009 (ip), vehicle: saline
[2] = dose: 100.0 mg/kg/injection, schedule: Q01DX009 (ip), vehicle: saline
[3] = dose: 200.0 mg/kg/injection, schedule: Q01DX009 (ip), vehicle: saline
[4] = dose: 60.0 mg/kg/injection, schedule: Q01DX005 (ip), vehicle: saline with Tween-80
[5] = dose: 120.0 mg/kg/injection, schedule: Q01DX005 (ip), vehicle: saline with Tween-80
[6] = dose: 240.0 mg/kg/injection, schedule: Q01DX005 (ip), vehicle: saline with Tween-80
[7] = dose: 25.0 mg/kg/injection, schedule: Q01DX009 (ip), vehicle: saline
[8] = dose: 50.0 mg/kg/injection, schedule: Q01DX005 (ip), vehicle: Klucel (hydroxypropylcellulose) (HPC)
[9] = dose: 100.0 mg/kg/injection, schedule: Q01DX005 (ip), vehicle: Klucel (hydroxypropylcellulose) (HPC)
[10] = dose: 200.0 mg/kg/injection, schedule: Q01DX005 (ip), vehicle: Klucel (hydroxypropylcellulose) (HPC)

Measured: T/C

CCC1=C(C)c2cc3[n-]c(cc4nc(cc5[n-]c(cc1n2)c(C)c5CCC(=O)OC)C(CCC(=O)OC)=C4C)c(C)c3CC.[Ni+2]
inactive: dose: 18.75 mg/kg/injection, schedule: Q01DX009 (ip), vehicle: saline with Tween-80 87 % of control | dose: 37.5 mg/kg/injection, schedule: Q01DX009 (ip), vehicle: saline with Tween-80 87 % of control | dose: 75.0 mg/kg/injection, schedule: Q01DX009 (ip), vehicle: saline with Tween-80 94 % of control

CCOS(=O)(=O)c1ccc(C(=O)O)cc1
inactive: [1] 108 % of control | [2] 107 % of control | [3] 107 % of control

CC1=CC(S)NC(=S)N1 (stereo not drawn)
inactive: [4] 101 % of control | [5] 105 % of control | [6] 102 % of control

CN1CCN(S(=O)(=O)c2cnccc2N2CCN(CCO)CC2)CC1
inactive: [1] 108 % of control | [2] 97 % of control | [3] 97 % of control

COc1cc2c(N)nc(N3CCN(C(=O)OCC(C)(C)O)CC3)nc2c(OC)c1OC
inactive: dose: 50.0 mg/kg/injection, schedule: Q01DX005 (ip), vehicle: suspension in saline 95 % of control | dose: 100.0 mg/kg/injection, schedule: Q01DX005 (ip), vehicle: suspension in saline 100 % of control | dose: 200.0 mg/kg/injection, schedule: Q01DX005 (ip), vehicle: suspension in saline 113 % of control

CC(C)=CCC/C(C)=C/CSC#N
inactive: dose: 25.0 mg/kg/injection, schedule: Q01DX005 (ip), vehicle: saline with Tween-80 102 % of control | dose: 50.0 mg/kg/injection, schedule: Q01DX005 (ip), vehicle: saline with Tween-80 105 % of control | dose: 100.0 mg/kg/injection, schedule: Q01DX005 (ip), vehicle: saline with Tween-80 111 % of control | dose: 200.0 mg/kg/injection, schedule: Q01DX005 (ip), vehicle: saline with Tween-80 104 % of control

COc1ccc2cc1Oc1ccc(cc1)C[C@@H]1c3cc(c(OC)cc3CCN1C)Oc1c(OC)c(OC)cc3c1[C@H](C2)N(C)CC3
inactive: dose: 25.0 mg/kg/injection, schedule: Q04DX002 (ip), vehicle: suspension in saline 99 % of control | dose: 50.0 mg/kg/injection, schedule: Q04DX002 (ip), vehicle: suspension in saline 100 % of control | dose: 100.0 mg/kg/injection, schedule: Q04DX002 (ip), vehicle: suspension in saline 100 % of control | dose: 200.0 mg/kg/injection, schedule: Q04DX002 (ip), vehicle: suspension in saline 93 % of control

COc1ccc(NC(=O)NNC(N)=S)cc1
inactive: dose: 50.0 mg/kg/injection, schedule: Q01DX009 (ip), vehicle: saline with Tween-80 96 % of control | dose: 100.0 mg/kg/injection, schedule: Q01DX009 (ip), vehicle: saline with Tween-80 91 % of control

O=C(Cc1nc2ccc(Cl)cc2[nH]c1=O)c1ccncc1
inactive: [4] 94 % of control | [5] 100 % of control | [6] 119 % of control

Nc1nc(CCl)nc(Nc2ccccc2)n1
inactive: dose: 12.5 mg/kg/injection, schedule: Q01DX009 (ip), vehicle: Klucel (hydroxypropylcellulose) (HPC) 101 % of control | dose: 25.0 mg/kg/injection, schedule: Q01DX009 (ip), vehicle: Klucel (hydroxypropylcellulose) (HPC) 101 % of control | dose: 50.0 mg/kg/injection, schedule: Q01DX009 (ip), vehicle: Klucel (hydroxypropylcellulose) (HPC) 101 % of control | dose: 100.0 mg/kg/injection, schedule: Q01DX009 (ip), vehicle: Klucel (hydroxypropylcellulose) (HPC) 99 % of control

Cc1ccc2oc3c(ccc(=O)n3C)c(=O)c2c1
inactive: dose: 100.0 mg/kg/injection, schedule: Q04DX002 (ip), vehicle: saline with Tween-80 101 % of control | dose: 200.0 mg/kg/injection, schedule: Q04DX002 (ip), vehicle: saline with Tween-80 100 % of control | dose: 400.0 mg/kg/injection, schedule: Q04DX002 (ip), vehicle: saline with Tween-80 98 % of control

Clc1ccc2ccc3ccccc3c2n1
inactive: dose: 12.5 mg/kg/injection, schedule: Q01DX009 (ip), vehicle: saline 101 % of control | [7] 102 % of control | [1] 101 % of control and 94 % of control

CCOC(=O)/C=C(\C)NC1CC(=O)NC1=O (stereo not drawn)
inactive: dose: 50.0 mg/kg/injection, schedule: Q01DX009 (ip), vehicle: distilled water + alcohol 104 % of control | dose: 100.0 mg/kg/injection, schedule: Q01DX009 (ip), vehicle: distilled water + alcohol 108 % of control

O=c1cccc(O)[nH]1
inactive: [1] 109 % of control and 94 % of control | [2] 100 % of control and 93 % of control

CC(=O)N1c2ccccc2Sc2cc(C(O)(C(F)(F)F)C(F)(F)F)ccc21
inactive: dose: 25.0 mg/kg/injection, schedule: Q04DX003 (ip), vehicle: saline with Tween-80 95 % of control | dose: 50.0 mg/kg/injection, schedule: Q04DX003 (ip), vehicle: saline with Tween-80 100 % of control | dose: 100.0 mg/kg/injection, schedule: Q04DX003 (ip), vehicle: saline with Tween-80 100 % of control

CC1(C)OC2CC(=O)OCC23C1=C(O)C(=O)C1(C)C3CCC2(C)C(c3ccoc3)OC(=O)C3OC321 (stereo not drawn)
inactive: dose: 0.5 mg/kg/injection, schedule: Q01DX009 (ip), vehicle: saline + alcohol 101 % of control | dose: 1.0 mg/kg/injection, schedule: Q01DX009 (ip), vehicle: saline + alcohol 104 % of control | dose: 2.0 mg/kg/injection, schedule: Q01DX009 (ip), vehicle: saline + alcohol 106 % of control | dose: 4.0 mg/kg/injection, schedule: Q01DX009 (ip), vehicle: saline + alcohol 106 % of control | dose: 8.0 mg/kg/injection, schedule: Q01DX009 (ip), vehicle: saline + alcohol 101 % of control

O=C(NCCNC(=O)C12CC3CC(CC(C3)C1)C2)C12CC3CC(CC(C3)C1)C2
inactive: dose: 6.0 mg/kg/injection, schedule: Q01DX005 (ip), vehicle: Klucel (hydroxypropylcellulose) (HPC) 88 % of control | dose: 12.0 mg/kg/injection, schedule: Q01DX005 (ip), vehicle: Klucel (hydroxypropylcellulose) (HPC) 88 % of control | dose: 100.0 mg/kg/injection, schedule: Q01DX001 (ip), vehicle: saline with Tween-80 94 % of control | dose: 200.0 mg/kg/injection, schedule: Q01DX001 (ip), vehicle: saline with Tween-80 95 % of control | dose: 400.0 mg/kg/injection, schedule: Q01DX001 (ip), vehicle: saline with Tween-80 86 % of control

CN(CC(=O)O)N=Nc1ccc(C(N)=O)cc1
inactive: [8] 100 % of control | [9] 96 % of control | [10] 100 % of control

Cc1cccc(NC(=O)Oc2ccc(Cl)cc2C(=O)c2ccccc2)c1
inactive: [4] 97 % of control | [5] 98 % of control | [6] 105 % of control

N#C/C(=N\O)C(N)=O
inactive: [7] 92 % of control | [1] 105 % of control | [2] 105 % of control | [3] 98 % of control

NC(Cc1ccccc1)C(=O)CCl (stereo not drawn)
inactive: dose: 12.5 mg/kg/injection, schedule: Q01DX001 (ip), vehicle: saline 104 % of control | dose: 25.0 mg/kg/injection, schedule: Q01DX001 (ip), vehicle: saline 100 % of control

CCN1CC2C3CCC(C)(O3)C2C1 (stereo not drawn)
inactive: dose: 50.0 mg/kg/injection, schedule: Q01DX005 (ip), vehicle: saline 99 % of control | dose: 100.0 mg/kg/injection, schedule: Q01DX005 (ip), vehicle: saline 98 % of control | dose: 200.0 mg/kg/injection, schedule: Q01DX005 (ip), vehicle: saline 101 % of control

CC(CO)NC(=O)C1C=C2c3cccc4[nH]cc(c34)CC2N(C)C1 (stereo not drawn)
inactive: dose: 9.0 mg/kg/injection, schedule: Q01DX009 (ip), vehicle: saline 97 % of control | dose: 18.0 mg/kg/injection, schedule: Q01DX009 (ip), vehicle: saline 91 % of control | dose: 44.5 mg/kg/injection, schedule: Q01DX009 (ip), vehicle: saline 97 % of control | dose: 89.0 mg/kg/injection, schedule: Q01DX009 (ip), vehicle: saline 97 % of control | dose: 178.0 mg/kg/injection, schedule: Q01DX009 (ip), vehicle: saline 106 % of control

O=Cc1ccc2occc2c1O
inactive: dose: 3.75 mg/kg/injection, schedule: Q01DX009 (ip), vehicle: saline with Tween-80 95 % of control | dose: 7.5 mg/kg/injection, schedule: Q01DX009 (ip), vehicle: saline with Tween-80 94 % of control | dose: 15.0 mg/kg/injection, schedule: Q01DX009 (ip), vehicle: saline with Tween-80 92 % of control

C=C1C(=O)O[C@@H]2C[C@H](C)[C@@H]3CC[C@H](O)[C@@]3(CO)C[C@H]12
inactive: dose: 12.5 mg/kg/injection, schedule: Q01DX005 (ip), vehicle: Klucel (hydroxypropylcellulose) (HPC) 102 % of control | dose: 25.0 mg/kg/injection, schedule: Q01DX005 (ip), vehicle: Klucel (hydroxypropylcellulose) (HPC) 102 % of control | [8] 103 % of control and 104 % of control | [9] 114 % of control | [10] 122 % of control
